The results in this text go back to the OPERA property sets (Mansouri et al. 2018).

Settings in the first series: not given
Regarding `C=COC(=O)CCl`, the ready biodegradability entry is listed as “readily biodegradable”.

On to `CC(C)(C#N)C(C)(C)C#N`, for which the melting point was found to be 170 °C.

With `Nc1ccc(S(=O)(=O)F)cc1`, the melting point turned out to be 68.5 °C.

`CC(C)CN=C=S` registered a boiling point of 160 °C.

The compound `COC(=O)C(C)N(C(=O)Cc1ccccc1)c1c(C)cccc1C` (configuration not stated) showed a log10 Koc (L/kg) of 3.54, a log10 vapour pressure (mmHg) of -5 and a melting point of 79 °C.

For `CC(C)NCC(O)COc1ccc(CCOCC2CC2)cc1` (configuration not stated), the melting point was determined as 71 °C.

In turn, `BrCCCCCCCCBr` showed a boiling point of 271 °C and a melting point of 15.5 °C.

In turn, `CCC(C)(Cl)CC` yielded a boiling point of 116 °C.

The compound `CC(C)=CCC1C(=O)N(c2ccccc2)N(c2ccccc2)C1=O` displayed a melting point of 156 °C.

Turning to `Cc1cccc(N(C)C)c1`, the boiling point is 212 °C.

Take `CC(=O)Nc1cccc(C(F)(F)F)c1`: the log10 Koc (L/kg) is 1.75 and the melting point came out at 104 °C.

The compound `CCOC(=O)n1ccn(C)c1=S` displayed a melting point of 124 °C.

As for `ClC[Si](Cl)(Cl)Cl`, the boiling point was 118 °C.

`CC1(C)C(=O)N(Cl)C(=O)N1Cl` had a melting point of 132 °C.

Turning to `CCOC(=O)C(Br)Br`, the boiling point stood at 194 °C.

`Oc1ccc(/N=N/c2ccccc2)cc1` had a log10 vapour pressure (mmHg) of -6.64 and a melting point of 155 °C.

Consider `O=C1CCCCC1C1=CCCCC1` (configuration not stated), for which the boiling point was 265 °C, the melting point was -78 °C and the ready biodegradability result was “not readily biodegradable”.

In the case of `CCCCOCCOCCOCCO`, the boiling point is 278 °C, the log10 vapour pressure (mmHg) was -2.6 and the melting point is -30 °C.

`COc1c(Cl)c(Cl)c(Cl)c(Cl)c1Cl` came in with a melting point of 108 °C.

`CCCCCCCCCCCC[C@H](C)O` showed a boiling point of 284 °C and a melting point of 34 °C.

Consider `CCNc1ccccc1`, for which the boiling point was found to be 203 °C, the log10 Henry constant (atm·m³/mol) is -5.01, the log10 vapour pressure (mmHg) is -0.69 and the melting point was -63.5 °C. Also, the ready biodegradability entry was “not readily biodegradable”.

The compound `C[Si](Cl)(Cl)Cl` gave a boiling point of 65.6 °C, a log10 vapour pressure (mmHg) of 2.22 and a melting point of -90 °C.

With `CCCCC(CC)COC(=O)Cl` (configuration not stated), the boiling point is 207 °C and the log10 vapour pressure (mmHg) is -0.775.

On to `Cl/C=C/Cl`, for which the ready biodegradability entry is listed as “not readily biodegradable”.

In the case of `N#CC(Br)(Br)C(N)=O`, the log10 vapour pressure (mmHg) was -3.05, the melting point came to 124 °C and the ready biodegradability entry was “not readily biodegradable”.

The compound `CCCCCCC(=O)OCCC` returned a boiling point of 208 °C and a melting point of -63.5 °C.

The compound `CCCCCC(=O)OCCC` registered a boiling point of 187 °C and a melting point of -68.7 °C.

As to `O=C(O)c1ccc(NC(=O)[C@H](Cc2ccc(O)cc2)NC(=O)c2ccccc2)cc1`, the melting point was 241 °C.

Consider `CCCC(=O)C(=O)OCC`, for which the boiling point was determined as 182 °C.

For `O=[N+]([O-])c1ccc(Cl)c(Cl)c1`, the boiling point is 256 °C, the log10 Henry constant (atm·m³/mol) is -5.09, the log10 Koc (L/kg) is 2.53 and the log10 vapour pressure (mmHg) is -1.99. The melting point amounted to 43 °C and the ready biodegradability result was “not readily biodegradable”.

Compound `Clc1cc(Cl)c2nsnc2c1Cl` gave a melting point of 122 °C.

Consider `C=C1/C(=C/C=C2/CCC[C@]3(C)[C@@H]([C@H](C)CCCC(C)C)CC[C@@H]23)C[C@@H](O)C[C@@H]1O`, for which the melting point came to 136 °C.

For the compound `CC(=O)OCC(CO)OC(C)=O` (configuration not stated), the boiling point came out at 259 °C and the ready biodegradability entry is “readily biodegradable”.

Compound `CC(=O)Oc1ccc(C2(c3ccc(OC(C)=O)cc3)C(=O)Nc3ccccc32)cc1` came in with a melting point of 242 °C.

`CCC1Nc2cc(Cl)c(S(N)(=O)=O)cc2S(=O)(=O)N1` (configuration not stated): the melting point stood at 270 °C.

`Cc1cc(O)c(C)c(O)c1` returned a boiling point of 278 °C and a melting point of 163 °C.

`CC=CC(C)C(C)C=CC` (configuration not stated) came in with a boiling point of 154 °C and a melting point of -64.8 °C.

Take `Cc1ccc(C)c(C(C)c2ccccc2)c1` (configuration not stated): the ready biodegradability entry is “not readily biodegradable”.

`FC1(F)C(F)(F)C(F)(Cl)C1(F)Cl` (configuration not stated) came in with a boiling point of 59.5 °C, a log10 vapour pressure (mmHg) of 2.36 and a melting point of -24.2 °C.

Turning to `C=COCCCCCCCCCCCCCCCC`, the melting point turned out to be 16 °C.

For the compound `CC(=O)CC(=O)Nc1ccc(-c2ccc(NC(=O)CC(C)=O)c(C)c2)cc1C`, the melting point worked out at 212 °C and the ready biodegradability entry is given as “not readily biodegradable”.

As for `CCC(C)C(C)C(C)=O` (configuration not stated), the boiling point turned out to be 158 °C.

On to `CCCc1ccc2c(c1)OCO2`, for which the boiling point stood at 228 °C.

On to `Clc1cc(-c2ccccc2)c(Cl)c(Cl)c1Cl`, for which the log10 Koa turned out to be 8.74 and the log10 vapour pressure (mmHg) was -4.43.

With `C=C(C)C=CC`, the melting point amounted to 75.5 °C.

`NC(=O)C1(N2C(=O)c3cccc(Cl)c3C2=O)CCCCC1` displayed a melting point of 194 °C.

The same series, now with this note: fish.
With `Nc1c(Cl)cc(Cl)cc1Cl`, the log10 BCF was found to be 2 and the log10 biotransformation half-life (days) is 0.67.

Take `Cc1ccc(C)c(C)c1C`: the log10 biotransformation half-life (days) turned out to be 1.17.

For the compound `CCCCCCCCOc1ccc(C(=O)c2ccccc2)c(O)c1`, the log10 BCF is 1.9.

Take `N#Cc1cccc(C#N)c1`: the log10 BCF was 0.75 and the log10 biotransformation half-life (days) is -0.62.

`O=C(O)c1c(Cl)cccc1Cl` came in with a log10 BCF of 0.26.

In turn, `O=C1CCCCC1C1=CCCCC1` (configuration not stated) displayed a log10 BCF of 0.7.

With `COc1c(Cl)c(Cl)c(Cl)c(Cl)c1Cl`, the log10 BCF was found to be 4.16 and the log10 biotransformation half-life (days) was 2.67.

The compound `CCNc1ccccc1` gave a log10 BCF of 1.11 and a log10 biotransformation half-life (days) of -0.65.

With `O=[N+]([O-])c1ccc(Cl)c(Cl)c1`, the log10 BCF was 1.71 and the log10 biotransformation half-life (days) is -0.27.

The compound `Cc1ccc(C)c(C(C)c2ccccc2)c1` (configuration not stated) registered a log10 BCF of 2.86 and a log10 biotransformation half-life (days) of 0.1.

`CC(=O)CC(=O)Nc1ccc(-c2ccc(NC(=O)CC(C)=O)c(C)c2)cc1C` registered a log10 BCF of 0.2 and a log10 biotransformation half-life (days) of -1.5.

As a reminder, the melting point is the temperature of the solid-liquid transition. The boiling point is the temperature at which the vapour pressure of the liquid equals the pressure above it.
